Results on one compound are retold here after PMC12144419, “Early preclinical development of Mycobacteriumtuberculosis amino acid biosynthesis pathway inhibitor DRILS-1398 as a potential anti-TB drug” (iScience, 2025).

The target of data set [1] is M.tb chorismate mutase (M.tb-CM) (Mycobacterium tuberculosis, UniProt P9WIB9). The data set is described as follows: CM assay (in vitro substrate competition enzymatic assay, chorismate to prephenate, OD 274 nm). The format is biochemical. How it is done:
The activity of the CM enzyme was based on direct observation of the conversion of chorismate to prephenate at OD 274 nm.[32] The reaction volume of the assay was maintained at 100 μl. 1mM of the substrate, chorismic acid (Sigma) was pre-incubated at 37°C for 5 min in the buffer (containing 50mM Tris-HCl (pH 7.5), 0.5mM EDTA, 0.1 mg/mL bovine serum albumin, and 10 mM β-Mercaptoethanol). The reaction was started by adding 180 pmol of CM enzyme to the prewarmed chorismic acid solution. Inhibitory screening of the compounds against CM activity was measured at 100 nM to 50 μM concentration of the effectors. The reaction was allowed to proceed at 37°C and was terminated after 5 min with 100 μl of 1 N HCl. Disappearance of substrate was measured at 274 nm. A blank with no enzyme for every reaction was kept as a control to account for the non-enzymatic conversion of chorismate to prephenate.

Data set [2] deals with M.tb. ATCC-27294 strain. Nature of the data set: MIC against M.tb ATCC-27294. The class given is cell-based. As to conditions: Mycobacterium tuberculosis, ATCC27294.
In data set [3] the test system is intracellular MDR-M.tb H37Rv (ATCC 35825) in activated THP-1 macrophages. Nature of the data set: Intracellular efficacy THP-1 macrophage assay, MDR-M.tb ATCC 35825. The class given is cell-based, Mycobacterium tuberculosis.
The target of data set [4] is CYP 2C9 (Homo sapiens, UniProt P11712). Nature of the data set: biochemical.
Sequence of CYP 2C9 (P11712 whole entry): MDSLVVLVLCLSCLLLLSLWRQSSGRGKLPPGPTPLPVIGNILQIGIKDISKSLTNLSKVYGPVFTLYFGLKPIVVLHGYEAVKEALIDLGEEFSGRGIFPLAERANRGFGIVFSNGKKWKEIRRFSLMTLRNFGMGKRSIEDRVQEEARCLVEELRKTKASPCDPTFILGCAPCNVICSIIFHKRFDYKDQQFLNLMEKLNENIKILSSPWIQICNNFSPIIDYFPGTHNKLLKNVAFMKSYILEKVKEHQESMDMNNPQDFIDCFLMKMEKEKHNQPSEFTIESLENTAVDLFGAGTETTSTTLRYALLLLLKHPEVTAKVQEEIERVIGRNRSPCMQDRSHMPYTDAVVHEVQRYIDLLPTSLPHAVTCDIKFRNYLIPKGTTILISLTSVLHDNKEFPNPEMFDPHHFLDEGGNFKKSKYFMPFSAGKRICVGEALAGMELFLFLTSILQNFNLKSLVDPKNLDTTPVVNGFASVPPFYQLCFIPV
Experimental: (§1) This study performed CYP inhibition assay using Vivid CYP P450 (1A2, 2C9, 2C19, 2D6, and 3A4) blue screening kits.[56] […] The fluorescent reading was taken using a microplate reader at excitation/emission wavelengths of 415/460 nm, respectively. The % of CYP inhibition of test/positive control at each tested concentration was calculated, and the IC50 value against each CYP isoform was plotted using Graph pad prism software.
Data set [5] has as its target CYP 2C19 (Homo sapiens, UniProt P33261). Nature of the data set: biochemical.
Experimental: as §1
Data set [6] concerns the target CYP 3A4 (Homo sapiens, UniProt P08684). Nature of the data set: biochemical.
Experimental: as §1
Data set [7] deals with M.tb H37Rv. The data set is described as follows: Histopathology (H&E, ZN stain) of lungs of infected mice.

A word on the IC50: it is the midpoint of a concentration-inhibition curve. A low value points to greater potency. In general, IC90 refers to the concentration needed for an effect of 90%. Broadly, the MIC is the smallest concentration in the dilution series that meets the test's criterion for growth inhibition. Read a low MIC as greater potency.

Several values for one entry are separate records, joined by “and”; a condition that tells them apart may be missing. Equal values may be shown once. Some results are limits rather than exact numbers.

Sequence of M.tb chorismate mutase (M.tb-CM) (P9WIB9 34-199): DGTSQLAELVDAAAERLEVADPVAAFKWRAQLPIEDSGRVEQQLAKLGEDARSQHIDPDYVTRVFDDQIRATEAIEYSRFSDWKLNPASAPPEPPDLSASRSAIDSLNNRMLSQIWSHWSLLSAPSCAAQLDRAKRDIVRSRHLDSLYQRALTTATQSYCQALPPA
Sequence of CYP 3A4 (P08684 whole entry): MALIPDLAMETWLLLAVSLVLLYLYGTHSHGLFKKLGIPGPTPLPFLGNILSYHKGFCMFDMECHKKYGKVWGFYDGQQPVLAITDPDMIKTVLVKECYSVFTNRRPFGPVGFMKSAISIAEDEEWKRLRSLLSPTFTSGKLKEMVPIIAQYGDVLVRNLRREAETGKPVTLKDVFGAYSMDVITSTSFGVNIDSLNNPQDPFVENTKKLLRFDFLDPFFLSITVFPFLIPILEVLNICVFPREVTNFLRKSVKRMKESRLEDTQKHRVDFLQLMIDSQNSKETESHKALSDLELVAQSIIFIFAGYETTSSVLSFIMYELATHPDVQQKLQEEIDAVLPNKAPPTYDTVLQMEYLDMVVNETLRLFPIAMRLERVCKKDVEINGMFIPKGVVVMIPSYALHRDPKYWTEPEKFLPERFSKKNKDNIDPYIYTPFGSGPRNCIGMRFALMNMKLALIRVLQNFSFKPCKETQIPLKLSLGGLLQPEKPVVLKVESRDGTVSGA
Sequence of CYP 2C19 (P33261 whole entry): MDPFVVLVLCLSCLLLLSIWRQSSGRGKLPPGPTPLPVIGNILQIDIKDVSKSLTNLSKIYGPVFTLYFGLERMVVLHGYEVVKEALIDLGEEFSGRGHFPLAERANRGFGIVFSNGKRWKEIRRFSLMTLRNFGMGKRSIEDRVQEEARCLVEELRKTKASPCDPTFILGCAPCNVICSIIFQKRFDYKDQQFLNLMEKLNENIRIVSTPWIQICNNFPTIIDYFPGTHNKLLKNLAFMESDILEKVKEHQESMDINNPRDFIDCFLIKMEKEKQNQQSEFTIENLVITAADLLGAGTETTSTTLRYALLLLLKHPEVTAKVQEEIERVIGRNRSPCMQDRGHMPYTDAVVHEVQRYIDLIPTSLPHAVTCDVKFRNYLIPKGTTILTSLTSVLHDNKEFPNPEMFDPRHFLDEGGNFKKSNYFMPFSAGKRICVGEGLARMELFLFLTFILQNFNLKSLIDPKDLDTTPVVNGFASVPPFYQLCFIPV

`CCCc1nn(C)c2c(-c3c[nH]c4ccc(Cl)cc34)nc(-c3ccc(Cl)cc3)nc12` [DRILS-1398]: the IC50 was 3 µM and ~3 µM in data set [1] (IC50, inhibition of M.tb-CM activity, n = 3); 12.2 µM in data set [4]; 13.7 µM in data set [5]; more than 30 µM in data set [6]. For the same compound, in data set [1] (read-out: IC90, inhibition of M.tb-CM activity), the 90% effect concentration (IC90) was 10 µM. Also, the MIC in data set [2] (M.tb ATCC-27294) is 6.53 µg/mL; in data set [2] (M.tb ATCC-27294, converted), approximately 15 µM. Besides, the “cfu reduction vs day-3 control” value in data set [3] (Fig 4C, day 3, C1: DRILS-1398 15 μM, rifampicin 13.16 μM) was 0.40 log10 cfu/mL. Further, the “cfu reduction vs day-7 control” value in data set [3] (Fig 4C, day 7, C1: DRILS-1398 15 μM, rifampicin 13.16 μM) was 0.70 log10 cfu/mL. Further, the “cfu reduction vs day 7 control, combination study” value in data set [3] (Fig 4E, day 7, DRILS-1398 15 μM, rifampicin 19.45 μM, alone or combined) stood at 0.77 log10 cfu/mL. For the same compound, the “Granuloma in the lung” value in data set [7] (DRILS-1398 and DRILS-1398(F) 30 mg/kg, isoniazid 5 mg/kg) was “no signs of granuloma”. Moreover, the Granuloma result in data set [7] (Table S4, lung of infected treated mice) is “-”. The “Necrosis of the lung tissue” value in data set [7] (mouse, in vivo) was “not observed”. For the same compound, the “Acid-fast bacilli load in lung, ZN staining” value in data set [7] (vs infected mice without drug) is reported as “significant decrease in bacilli load”.
